# Measurements taken from paper PMC8909834, “An Orally Bioavailable and Highly Efficacious Inhibitor of CDK9/FLT3 for the Treatment of Acute Myeloid Leukemia” (Cancers, 2022).
# Key:
# Test in all cases: Kinase Hotspot radiolabel assay
# Format in all cases: biochemical
# Conditions in all cases: read-out: % Residual Activity
# [1] = target: T1, NEK2 (Homo sapiens, UniProt P51955)
# T1 construct: purchased Reaction Biology Corporation (Kinase HotSpot)
# Summary of the method: (§1)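 Percent inhibition is from a radiometric Hotspot assay at 1 µM compound. The panel spans 369 kinases, and Ki measurement follows for those inhibited over 90%.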
# [2] = target: T2, LRRK2 (Homo sapiens, UniProt Q5S007)
# T2 construct: purchased Reaction Biology Corporation (Kinase HotSpot)
# Summary of the method: as §1
# [3] = target: T3, HIPK3 (Homo sapiens, UniProt Q9H422)
# T3 construct: purchased Reaction Biology Corporation (Kinase HotSpot)
# Summary of the method: as §1
# [4] = target: T4, FGFR1 (Homo sapiens, UniProt P11362)
# T4 construct: purchased Reaction Biology Corporation (Kinase HotSpot)
# Summary of the method: as §1
# [5] = target: T5, ABL1 (Homo sapiens, UniProt P00519)
# T5 construct: purchased Reaction Biology Corporation (Kinase HotSpot)
# Summary of the method: as §1
# [6] = target: T6, FLT3 (Homo sapiens, UniProt P36888)
# T6 construct: purchased Reaction Biology Corporation (Kinase HotSpot)
# Summary of the method: as §1
# [7] = target: T7, PHKg1 (Homo sapiens, UniProt Q16816)
# T7 construct: purchased Reaction Biology Corporation (Kinase HotSpot)
# Summary of the method: as §1
# [8] = target: T8, CAMKK1 (Homo sapiens, UniProt Q8N5S9)
# T8 construct: purchased Reaction Biology Corporation (Kinase HotSpot)
# Summary of the method: as §1
# [9] = target: T9, TEC (Homo sapiens, UniProt P42680)
# T9 construct: purchased Reaction Biology Corporation (Kinase HotSpot)
# Summary of the method: as §1
# [10] = target: T10, FGFR4 (Homo sapiens, UniProt P22455)
# T10 construct: purchased Reaction Biology Corporation (Kinase HotSpot)
# Summary of the method: as §1
# [11] = target: T11, CDK2/cyclin A (Homo sapiens, UniProt P24941)
# T11 construct: purchased Reaction Biology Corporation (Kinase HotSpot)
# Summary of the method: as §1
# [12] = target: T12, CDK6/cyclin D3 (Homo sapiens, UniProt Q00534)
# T12 construct: purchased Reaction Biology Corporation (Kinase HotSpot)
# Summary of the method: as §1
# [13] = target: T13, PLK3 (Homo sapiens, UniProt Q9H4B4)
# T13 construct: purchased Reaction Biology Corporation (Kinase HotSpot)
# Summary of the method: as §1
# [14] = target: T14, LCK (Homo sapiens, UniProt P06239)
# T14 construct: purchased Reaction Biology Corporation (Kinase HotSpot)
# Summary of the method: as §1
# [15] = target: T15, PKCmu/PRKD1 (Homo sapiens, UniProt Q15139)
# T15 construct: purchased Reaction Biology Corporation (Kinase HotSpot)
# Summary of the method: as §1
# [16] = target: T16, MRCKb/CDC42BPB (Homo sapiens, UniProt Q9Y5S2)
# T16 construct: purchased Reaction Biology Corporation (Kinase HotSpot)
# Summary of the method: as §1
# [17] = target: T17, MEK2 (Homo sapiens, UniProt P36507)
# T17 construct: purchased Reaction Biology Corporation (Kinase HotSpot)
# Summary of the method: as §1
# [18] = target: T18, TSSK2 (Homo sapiens, UniProt Q96PF2)
# T18 construct: purchased Reaction Biology Corporation (Kinase HotSpot)
# Summary of the method: as §1
# [19] = target: T19, IRAK4 (Homo sapiens, UniProt Q9NWZ3)
# T19 construct: purchased Reaction Biology Corporation (Kinase HotSpot)
# Summary of the method: as §1
# [20] = target: T20, CHK2 (Homo sapiens, UniProt O96017)
# T20 construct: purchased Reaction Biology Corporation (Kinase HotSpot)
# Summary of the method: as §1
# [21] = target: T21, TRKA (Homo sapiens, UniProt P04629)
# T21 construct: purchased Reaction Biology Corporation (Kinase HotSpot)
# Summary of the method: as §1
# [22] = target: T22, SSTK/TSSK6 (Homo sapiens, UniProt Q9BXA6)
# T22 construct: purchased Reaction Biology Corporation (Kinase HotSpot)
# Summary of the method: as §1
# [23] = target: T23, PKAcg (Homo sapiens, UniProt P22612)
# T23 construct: purchased Reaction Biology Corporation (Kinase HotSpot)
# Summary of the method: as §1
# [24] = target: T24, ERK5/MAPK7 (Homo sapiens, UniProt Q13164)
# T24 construct: purchased Reaction Biology Corporation (Kinase HotSpot)
# Summary of the method: as §1
# [25] = target: T25, LIMK1 (Homo sapiens, UniProt P53667)
# T25 construct: purchased Reaction Biology Corporation (Kinase HotSpot)
# Summary of the method: as §1
# [26] = target: T26, EPHB4 (Homo sapiens, UniProt P54760)
# T26 construct: purchased Reaction Biology Corporation (Kinase HotSpot)
# Summary of the method: as §1
# [27] = target: T27, PYK2 (Homo sapiens, UniProt Q14289)
# T27 construct: purchased Reaction Biology Corporation (Kinase HotSpot)
# Summary of the method: as §1
# [28] = target: T28, PASK (Homo sapiens, UniProt Q96RG2)
# T28 construct: purchased Reaction Biology Corporation (Kinase HotSpot)
# Summary of the method: as §1
# [29] = target: T29, SBK1 (Homo sapiens, UniProt Q52WX2)
# T29 construct: purchased Reaction Biology Corporation (Kinase HotSpot)
# Summary of the method: as §1
# [30] = target: T30, SRPK2 (Homo sapiens, UniProt P78362)
# T30 construct: purchased Reaction Biology Corporation (Kinase HotSpot)
# Summary of the method: as §1
# T26 sequence (P54760 16-987): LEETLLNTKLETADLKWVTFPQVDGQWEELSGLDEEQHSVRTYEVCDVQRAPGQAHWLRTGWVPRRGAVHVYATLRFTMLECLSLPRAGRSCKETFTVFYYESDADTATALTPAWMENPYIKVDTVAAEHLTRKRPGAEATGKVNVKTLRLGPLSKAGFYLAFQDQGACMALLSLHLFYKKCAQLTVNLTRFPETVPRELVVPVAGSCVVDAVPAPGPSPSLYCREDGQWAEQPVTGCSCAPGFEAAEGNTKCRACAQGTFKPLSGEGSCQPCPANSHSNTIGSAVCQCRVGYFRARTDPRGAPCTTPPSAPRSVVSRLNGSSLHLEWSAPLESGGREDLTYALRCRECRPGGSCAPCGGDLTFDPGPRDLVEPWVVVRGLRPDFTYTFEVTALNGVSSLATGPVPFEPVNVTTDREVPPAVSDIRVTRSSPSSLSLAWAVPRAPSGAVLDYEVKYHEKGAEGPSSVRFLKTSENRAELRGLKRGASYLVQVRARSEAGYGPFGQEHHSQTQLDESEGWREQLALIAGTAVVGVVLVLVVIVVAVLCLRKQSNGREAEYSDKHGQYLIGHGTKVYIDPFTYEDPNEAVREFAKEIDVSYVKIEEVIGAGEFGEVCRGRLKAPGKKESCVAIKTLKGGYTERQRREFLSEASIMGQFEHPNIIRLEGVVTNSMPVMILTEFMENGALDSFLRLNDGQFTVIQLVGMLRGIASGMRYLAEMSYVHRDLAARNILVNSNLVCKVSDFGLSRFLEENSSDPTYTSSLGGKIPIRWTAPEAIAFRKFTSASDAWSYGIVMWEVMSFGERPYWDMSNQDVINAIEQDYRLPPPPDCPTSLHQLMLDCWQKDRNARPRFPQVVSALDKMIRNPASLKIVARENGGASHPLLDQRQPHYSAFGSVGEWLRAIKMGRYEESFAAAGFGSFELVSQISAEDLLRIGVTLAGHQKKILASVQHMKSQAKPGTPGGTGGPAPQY
# T2 sequence (Q5S007 whole entry): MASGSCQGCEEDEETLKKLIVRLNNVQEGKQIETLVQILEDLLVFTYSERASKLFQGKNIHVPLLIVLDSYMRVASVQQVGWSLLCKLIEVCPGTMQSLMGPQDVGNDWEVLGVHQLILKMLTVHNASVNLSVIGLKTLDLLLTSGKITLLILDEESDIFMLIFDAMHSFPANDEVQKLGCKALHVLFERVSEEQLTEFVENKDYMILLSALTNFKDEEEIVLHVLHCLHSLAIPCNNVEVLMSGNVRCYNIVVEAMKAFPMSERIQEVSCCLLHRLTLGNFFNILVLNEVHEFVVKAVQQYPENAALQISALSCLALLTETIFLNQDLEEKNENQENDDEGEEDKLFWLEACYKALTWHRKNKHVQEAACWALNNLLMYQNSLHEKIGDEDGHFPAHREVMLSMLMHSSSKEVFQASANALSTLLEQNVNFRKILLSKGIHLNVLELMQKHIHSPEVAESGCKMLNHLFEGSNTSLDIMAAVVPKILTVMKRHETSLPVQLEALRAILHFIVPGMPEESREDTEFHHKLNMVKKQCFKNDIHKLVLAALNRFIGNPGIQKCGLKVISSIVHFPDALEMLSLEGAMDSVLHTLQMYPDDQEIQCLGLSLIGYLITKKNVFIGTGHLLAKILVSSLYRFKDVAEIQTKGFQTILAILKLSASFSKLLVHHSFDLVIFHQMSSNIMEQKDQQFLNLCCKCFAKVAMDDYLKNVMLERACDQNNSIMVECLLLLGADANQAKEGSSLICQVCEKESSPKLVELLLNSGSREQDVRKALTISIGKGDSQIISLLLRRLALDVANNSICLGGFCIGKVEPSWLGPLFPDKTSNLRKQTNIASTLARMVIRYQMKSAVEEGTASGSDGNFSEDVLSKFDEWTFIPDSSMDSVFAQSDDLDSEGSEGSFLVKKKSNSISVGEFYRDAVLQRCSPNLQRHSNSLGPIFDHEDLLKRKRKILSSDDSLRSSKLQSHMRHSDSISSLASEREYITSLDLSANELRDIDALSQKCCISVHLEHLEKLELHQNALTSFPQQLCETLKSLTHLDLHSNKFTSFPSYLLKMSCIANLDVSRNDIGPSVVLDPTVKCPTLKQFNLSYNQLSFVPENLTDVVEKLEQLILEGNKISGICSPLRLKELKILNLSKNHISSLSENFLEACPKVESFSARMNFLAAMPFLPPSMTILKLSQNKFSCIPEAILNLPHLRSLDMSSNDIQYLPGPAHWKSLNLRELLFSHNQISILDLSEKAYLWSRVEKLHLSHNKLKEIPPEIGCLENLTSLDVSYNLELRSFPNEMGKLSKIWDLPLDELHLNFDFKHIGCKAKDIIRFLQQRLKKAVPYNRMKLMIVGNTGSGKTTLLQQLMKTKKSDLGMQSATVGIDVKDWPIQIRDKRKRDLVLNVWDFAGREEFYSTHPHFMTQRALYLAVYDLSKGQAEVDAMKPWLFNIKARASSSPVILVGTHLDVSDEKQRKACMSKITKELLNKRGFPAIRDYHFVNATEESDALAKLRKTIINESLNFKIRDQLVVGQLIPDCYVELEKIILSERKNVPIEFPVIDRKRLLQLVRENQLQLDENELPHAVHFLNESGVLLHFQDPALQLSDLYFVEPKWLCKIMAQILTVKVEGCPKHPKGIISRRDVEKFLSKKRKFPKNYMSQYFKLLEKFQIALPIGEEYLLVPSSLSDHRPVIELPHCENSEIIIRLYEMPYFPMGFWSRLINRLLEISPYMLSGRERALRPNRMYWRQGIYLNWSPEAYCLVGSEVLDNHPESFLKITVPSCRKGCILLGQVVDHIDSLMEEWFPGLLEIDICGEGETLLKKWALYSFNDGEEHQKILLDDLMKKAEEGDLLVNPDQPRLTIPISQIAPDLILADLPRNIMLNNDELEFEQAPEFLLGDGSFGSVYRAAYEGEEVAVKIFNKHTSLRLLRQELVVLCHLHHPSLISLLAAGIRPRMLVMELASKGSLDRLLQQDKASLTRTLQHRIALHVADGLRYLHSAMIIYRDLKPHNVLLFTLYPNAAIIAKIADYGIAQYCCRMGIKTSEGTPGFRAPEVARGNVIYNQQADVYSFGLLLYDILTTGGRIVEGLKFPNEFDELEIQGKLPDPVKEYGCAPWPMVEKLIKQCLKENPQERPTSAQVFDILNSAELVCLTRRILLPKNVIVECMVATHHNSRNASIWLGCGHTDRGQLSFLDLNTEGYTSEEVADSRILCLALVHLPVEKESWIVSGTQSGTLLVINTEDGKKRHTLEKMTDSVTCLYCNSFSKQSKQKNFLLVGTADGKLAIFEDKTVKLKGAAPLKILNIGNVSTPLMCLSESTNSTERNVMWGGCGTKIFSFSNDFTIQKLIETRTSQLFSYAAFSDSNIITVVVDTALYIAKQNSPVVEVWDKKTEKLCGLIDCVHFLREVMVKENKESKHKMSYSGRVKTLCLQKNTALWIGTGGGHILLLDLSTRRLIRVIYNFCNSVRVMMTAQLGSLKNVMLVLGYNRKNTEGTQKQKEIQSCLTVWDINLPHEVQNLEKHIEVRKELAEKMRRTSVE
# T18 sequence (Q96PF2 whole entry): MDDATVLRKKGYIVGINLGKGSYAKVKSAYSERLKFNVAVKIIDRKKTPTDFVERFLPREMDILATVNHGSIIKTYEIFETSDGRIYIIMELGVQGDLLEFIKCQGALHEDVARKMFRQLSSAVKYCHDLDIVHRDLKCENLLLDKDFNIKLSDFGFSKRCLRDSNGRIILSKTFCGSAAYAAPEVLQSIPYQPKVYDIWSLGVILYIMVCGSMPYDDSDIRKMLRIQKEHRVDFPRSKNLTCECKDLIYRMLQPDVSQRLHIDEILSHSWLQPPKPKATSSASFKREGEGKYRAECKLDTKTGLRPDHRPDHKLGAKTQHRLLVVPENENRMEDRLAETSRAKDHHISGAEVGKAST
# T7 sequence (Q16816 whole entry): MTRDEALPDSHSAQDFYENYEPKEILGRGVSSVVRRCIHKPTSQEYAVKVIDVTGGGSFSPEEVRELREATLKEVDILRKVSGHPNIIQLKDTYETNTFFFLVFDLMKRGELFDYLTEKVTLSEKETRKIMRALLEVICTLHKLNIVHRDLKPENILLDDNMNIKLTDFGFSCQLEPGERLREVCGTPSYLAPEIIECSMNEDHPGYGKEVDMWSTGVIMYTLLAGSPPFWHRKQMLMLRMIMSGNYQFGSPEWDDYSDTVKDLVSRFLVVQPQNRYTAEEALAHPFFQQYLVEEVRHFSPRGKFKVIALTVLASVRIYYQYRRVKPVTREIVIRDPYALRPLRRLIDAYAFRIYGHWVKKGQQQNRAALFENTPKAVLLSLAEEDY
# T19 sequence (Q9NWZ3 whole entry): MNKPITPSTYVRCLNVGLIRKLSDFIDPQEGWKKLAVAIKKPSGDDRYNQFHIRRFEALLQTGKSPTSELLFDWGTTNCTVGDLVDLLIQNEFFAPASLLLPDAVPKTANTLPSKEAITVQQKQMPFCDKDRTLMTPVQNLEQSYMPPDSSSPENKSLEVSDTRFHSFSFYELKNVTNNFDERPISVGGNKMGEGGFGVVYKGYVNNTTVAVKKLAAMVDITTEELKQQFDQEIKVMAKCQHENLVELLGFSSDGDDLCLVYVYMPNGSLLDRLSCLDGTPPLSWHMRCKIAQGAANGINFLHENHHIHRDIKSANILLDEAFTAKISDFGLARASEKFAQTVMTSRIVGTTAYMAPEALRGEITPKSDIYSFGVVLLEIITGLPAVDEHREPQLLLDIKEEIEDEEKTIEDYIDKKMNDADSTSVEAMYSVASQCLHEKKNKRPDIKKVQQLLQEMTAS
# T22 sequence (Q9BXA6 whole entry): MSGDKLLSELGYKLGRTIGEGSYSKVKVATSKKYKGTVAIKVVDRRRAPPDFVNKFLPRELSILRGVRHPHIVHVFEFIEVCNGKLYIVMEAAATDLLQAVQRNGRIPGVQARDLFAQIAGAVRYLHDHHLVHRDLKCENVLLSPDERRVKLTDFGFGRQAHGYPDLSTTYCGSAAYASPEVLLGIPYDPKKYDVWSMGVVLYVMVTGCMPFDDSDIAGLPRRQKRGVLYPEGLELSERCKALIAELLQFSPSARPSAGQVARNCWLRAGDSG
structure (smiles),measurement,setting,value
Cc1cnc(N[C@H]2CC[C@H](N)CC2)nc1-c1cnc2ccc(-c3ccccc3)cn12 [CDDD11-8],remaining activity at 1 µM,[1],90.7%
same,remaining activity at 1 µM,[2],70.6%
same,remaining activity at 1 µM,[3],125%
same,remaining activity at 1 µM,[4],96.8%
same,remaining activity at 1 µM,[5],76.8%
same,remaining activity at 1 µM,[6],2.43%
same,remaining activity at 1 µM,[7],59.2%
same,remaining activity at 1 µM,[8],76.5%
same,remaining activity at 1 µM,[9],101%
same,remaining activity at 1 µM,[10],104%
same,remaining activity at 1 µM,[11],55%
same,remaining activity at 1 µM,[12],96.6%
same,remaining activity at 1 µM,[13],109%
same,remaining activity at 1 µM,[14],72.5%
same,remaining activity at 1 µM,[15],53.1%
same,remaining activity at 1 µM,[16],79.3%
same,remaining activity at 1 µM,[17],79.1%
same,remaining activity at 1 µM,[18],93.8%
same,remaining activity at 1 µM,[19],59.2%
same,remaining activity at 1 µM,[20],97.2%
same,remaining activity at 1 µM,[21],14.2%
same,remaining activity at 1 µM,[22],79.1%
same,remaining activity at 1 µM,[23],86.7%
same,remaining activity at 1 µM,[24],93.3%
same,remaining activity at 1 µM,[25],12.9%
same,remaining activity at 1 µM,[26],81%
same,remaining activity at 1 µM,[27],84.2%
same,remaining activity at 1 µM,[28],43.1%
same,remaining activity at 1 µM,[29],102%
same,remaining activity at 1 µM,[30],95.3%
